Data on four molecules can be found in patent US10676440B2, “Crystalline forms of an NK-1 antagonist” (Helsinn Healthcare SA, priority 2014, dated 2020).

Format in all cases: physicochemical
Data set [1] is described as follows: Stability of ground and kneaded Form I by XRPD. The following applies: ball milling 10 min. On the procedure:
An untreated sample of Form I was ground by ball milling in a Retsch MM 200 grinder for 10 min at a frequency of 30 Hz. The sample was then analyzed by XRPD to determine its diffraction pattern. The stability of the ground sample was determined by comparing the diffraction pattern of the ground sample with that of the reference sample. […] In FIG. 26, the XRPD pattern for the Form I reference sample is shown in black and the pattern for the ground sample is shown in blue.
An untreated sample of Form I was ground by ball milling in a Retsch MM 200 grinder for 10 min at a frequency of 30 Hz with a catalytic amount of water. The sample was then analyzed by XRPD to determine its diffraction pattern. The stability of the kneaded sample was determined by comparing the diffraction pattern of the kneaded sample with that of the reference sample. […] In FIG. 27, the XRPD pattern for the Form I reference sample is shown in black and the XRPD pattern for the kneaded sample is shown in red.

Data set [2] is described as follows: Gravimetric solubility of Form I in solvents. On the procedure: Solubility was determined gravimetrically. A weighted sample of Form I was suspended in a defined amount of solvent. After equilibration and solvent-liquid separation, the weight of the saturated liquid was determined. The solvent was then evaporated, the solid residue dried to dryness and weighed. The solubility is reported as weight of solid substance dissolved divided by the weight of the solution.

The nature of data set [3]: Moisture adsorption/desorption (DVS), hygroscopicity. As to conditions: for Hygroscopicity (weight change 0 to 90%-RH) / Hygroscopicity classification: 25° C., 0% RH to 90% RH; for Hygroscopicity classification: European Pharmacopoeia classes. As to the method:
Moisture Adsorption/Desorption data was collected on a DVS-1 (SMS Surface Measurements Systems) moisture balance system. The sorption/desorption isotherms were measured stepwise in a range of 0% RH to 90% RH at 25° C. A weight change of <0.002 mg/min was chosen as the criterion to switch to the next level of relative humidity (with a maximum equilibration time of 6 hours if the weight criterion was not met). The data were corrected for the initial moisture content of the samples so that the weight after drying the sample at 0% relative humidity was taken as the zero point. The hygroscopicity of a given substance was characterized, in accordance with the European Phamacopoeia (Technical Guide 1999), by the increase in mass when the relative humidity is raised from 0% RH to 90% RH, as defined below (where weight increase=x):
Slightly hygroscopic: 0.2%≤x<2.0%
Very hygroscopic: x≥15.0%
Deliquescent: Sufficient liquid as adsorbed to form a liquid

A short description of data set [4]: Approximate solubility in water at rt.
A short description of data set [5]: Solid form stability of Form II (ambient storage, humidity, water suspension). On the procedure: Form II was confirmed as a crystalline solid according to XRPD analysis. The XRPD pattern of Form II is shown in FIG. 17 and the peak data is given below in Table 7. […] The red pattern was recorded after storing Form II for 1 h and 20 min under ambient conditions.
Thermogravimetry coupled to Fourier Transform (TGA-FT) measurements taken during the conversion show a loss of trifluoroethanol above 100° C.

For `Cc1ccccc1-c1cc(N2CCN(C)CC2)ncc1N(C)C(=O)C(C)(C)c1cc(C(F)(F)F)cc(C(F)(F)F)c1` [Form I, 2-(3,5-bis(trifluoromethyl)phenyl)-N,2-dimethyl-N-(6-(4-methylpiperazin-1-yl)-4-(o-tolyl)pyridin-3-yl)propanamide], in data set [1] (30 Hz), the “stability of the ground sample (XRPD vs reference)” value is recorded as “loss of crystallinity”. Besides, in data set [1] (30 Hz with a catalytic amount of water), the “stability of the kneaded sample (XRPD vs reference)” value is given as “increased degree of crystallinity”. Moreover, the “Solubility (% m/m)” value in data set [2] (25° C., 1-Butanol) is given as greater than 11.6 % m/m; in data set [2] (25° C., 2-Butanone), greater than 11.2 % m/m; in data set [2] (25° C., Acetone), greater than 11.1 % m/m; in data set [2] (25° C., Acetonitrile) it was 9 % m/m; in data set [2] (25° C., Cyclohexane), 4.2 % m/m; in data set [2] (25° C., Dichloroethane) it was greater than 7.0 % m/m. The “Solubility (% m/m)” value is listed as greater than 9.0 % m/m in data set [2] (25° C., Dioxane); greater than 11.5 % m/m in data set [2] (25° C., Ethanol); 1.2 % m/m in data set [2] (25° C., Heptane); 22.2 % m/m in data set [2] (25° C., Isopropyl Acetate); greater than 11.9 % m/m in data set [2] (25° C., Methanol); greater than 9.9 % m/m in data set [2] (25° C., N,N-Dimethylformamide). The “Solubility (% m/m)” value in data set [2] (25° C., Tetrahydrofuran) was greater than 9.9 % m/m; in data set [2] (25° C., Toluene), greater than 10.8 % m/m; in data set [2] (25° C., Trifluoroethanol), greater than 7.5 % m/m; in data set [2] (25° C., Water) it was less than 0.1 % m/m; in data set [2] (25° C., Water/Acetone 1:2), 7.0 % m/m; in data set [2] (25° C., Water/Acetone 2:1), 0.2 % m/m. The “Solubility (% m/m)” value in data set [2] (25° C., Water/Acetonitrile 1:2) came to 6.2 % m/m; in data set [2] (25° C., Water/Acetonitrile 2:1), 0.5 % m/m; in data set [2] (25° C., Water/Dioxane 1:2), 4.9 % m/m; in data set [2] (25° C., Water/Dioxane 2:1), 0.1 % m/m; in data set [2] (25° C., Water/Ethanol 1:2) it was 3.1 % m/m; in data set [2] (25° C., Water/Ethanol 2:1), 0.1 % m/m. Besides, the “Solubility (% m/m)” value in data set [2] (25° C., Water/Methanol 1:2) is on record as 1.0 % m/m; in data set [2] (25° C., Water/Methanol 2:1) it was 0.2 % m/m; in data set [2] (25° C., Xylene), 18.4 % m/m; in data set [2] (60° C., 1-Butanol), 29.9 % m/m; in data set [2] (60° C., 2-Butanone), greater than 52.6 % m/m; in data set [2] (60° C., 2-Propanol) it was 26.2 % m/m. Moreover, the “Solubility (% m/m)” value in data set [2] (60° C., Acetone) is given as greater than 53.3 % m/m; in data set [2] (60° C., Acetonitrile), 14.4 % m/m; in data set [2] (60° C., Cyclohexane) it was 16.0 % m/m; in data set [2] (60° C., Dichloroethane), 34.7 % m/m; in data set [2] (60° C., Dioxane), greater than 41.6 % m/m; in data set [2] (60° C., Ethanol) it was 33.1 % m/m. The “Solubility (% m/m)” value was 45.9 % m/m in data set [2] (60° C., Ethyl Acetate); 3.0 % m/m in data set [2] (60° C., Heptane); greater than 35.0 % m/m in data set [2] (60° C., Isopropyl Acetate); 48.4 % m/m in data set [2] (60° C., Methanol); 40.7 % m/m in data set [2] (60° C., N,N-Dimethylformamide); greater than 50.4 % m/m in data set [2] (60° C., Tetrahydrofuran). Also, the “Solubility (% m/m)” value in data set [2] (60° C., Toluene) is recorded as 48.8 % m/m; in data set [2] (60° C., Trifluoroethanol), greater than 39.1 % m/m; in data set [2] (60° C., Water), less than 0.1 % m/m; in data set [2] (60° C., Water/Acetone 1:2), 11.7 % m/m; in data set [2] (60° C., Water/Acetone 2:1), less than 0.1 % m/m; in data set [2] (60° C., Water/Acetonitrile 1:2) it was 6.4 % m/m. Besides, the “Solubility (% m/m)” value in data set [2] (60° C., Water/Acetonitrile 2:1) was less than 0.1 % m/m; in data set [2] (60° C., Water/Dioxane 1:2) it was 21.1 % m/m; in data set [2] (60° C., Water/Dioxane 2:1) it was less than 0.1 % m/m; in data set [2] (60° C., Water/Ethanol 1:2) it was 5.5 % m/m; in data set [2] (60° C., Water/Ethanol 2:1), less than 0.1 % m/m; in data set [2] (60° C., Water/Methanol 1:2) it was 0.4 % m/m. The “Solubility (% m/m)” value in data set [2] (60° C., Water/Methanol 2:1) is less than 0.1 % m/m; in data set [2] (60° C., Xylene), greater than 35.0 % m/m. In addition, the “Hygroscopicity (weight change 0 to 90%-RH)” value in data set [3] was found to be 0.1%. In addition, the Hygroscopicity classification result in data set [3] was “non-hygroscopic”. Besides, the “weight gain during the drying step and the first adsorption segment” value in data set [3] (first cycle, likely due to electrostatic charges) is “about 0.3%”. Also, the “weight loss in the second cycle” value in data set [3] (second cycle) is 0.1%.
For the molecule `Cc1ccccc1-c1cc(N2CCN(C)CC2)ncc1N(C)C(=O)C(C)(C)c1cc(C(F)(F)F)cc(C(F)(F)F)c1` [Form III, 2-(3,5-bis(trifluoromethyl)phenyl)-N,2-dimethyl-N-(6-(4-methylpiperazin-1-yl)-4-(o-tolyl)pyridin-3-yl)propanamide], in data set [4], the solubility – broadly, the dissolved amount per volume that the medium holds – is less than 1000 µg/mL.
Regarding `Cc1ccccc1-c1cc(N2CCN(C)CC2)ncc1N(C)C(=O)C(C)(C)c1cc(C(F)(F)F)cc(C(F)(F)F)c1` [Amorphous Form, 2-(3,5-bis(trifluoromethyl)phenyl)-N,2-dimethyl-N-(6-(4-methylpiperazin-1-yl)-4-(o-tolyl)pyridin-3-yl)propanamide], in data set [3], the “crystallization during the sorption isotherm measurement” value was “No crystallization could be observed”, the “Hygroscopicity (weight change 0 to 90%-RH)” value stood at 1.5% and the Hygroscopicity classification entry is listed as “slightly hygroscopic”. Further, the moisture adsorbed result in data set [3] (two cycles) is recorded as “up to 1.5 % w/w”.
With `Cc1ccccc1-c1cc(N2CCN(C)CC2)ncc1N(C)C(=O)C(C)(C)c1cc(C(F)(F)F)cc(C(F)(F)F)c1` [Form II, 2-(3,5-bis(trifluoromethyl)phenyl)-N,2-dimethyl-N-(6-(4-methylpiperazin-1-yl)-4-(o-tolyl)pyridin-3-yl)propanamide], in data set [5] (80% relative humidity), the “conversion at 80% relative humidity” value was “convert to Form I”. Also, the “stability under ambient conditions” value in data set [5] (ambient conditions, XRPD) is “unstable under ambient conditions and converts to Form I”. Besides, in data set [5] (stored 1 h and 20 min under ambient conditions, XRPD), the “conversion after storing under ambient conditions” value is “partial conversion to Form I”. The “conversion upon suspension equilibration in water” value in data set [5] (suspension equilibration in water) was “convert to Form I”.
